Source: patent US20200223826A1, “Glucose-6-Phosphate Dehydrogenase (G6PD)-Modulating Agents And Methods Of Treating G6PD Deficiency” (The Board of Trustees of the Leland Stanford Junior …, priority 2017, published 2020)

Columns and labels:
g6pd crispant embryos = assay: g6pd crispant zebrafish embryos; format: in vivo; conditions: 1 μM AG1
Description: sgRNA against Exon 10 of g6pd was designed using CHOPCHOP and in vitro transcribed according to standard protocols. The gene-specific oligo sequence was: 5′-[…] CAAG-3′ (SEQ ID NO: //). sgRNA and Cas9 protein (NEB) were mixed and microinjected into one-cell-stage embryos. For each injected clutch, 10 individual embryos were isolated at 24 hpf for sequencing to confirm introduction of a CRISPR-mediated indel in exon 10.
Embryos were dechorinated with pronase at 24 hours post fertilization (hpf) and treated with 50 μg/ml of chloroquine and/or AG1 by directly adding the compounds to the well. For ROS measurements, embryos were incubated with compounds for 2 hours, and then the ROS detecting reagent (CM-H2DCFDA) was added at a final concentration of 500 ng/ml to the well for a total treatment time of 5 hours. One embryo was placed to each well of a black, opaque 96-well plate. The florescence was analyzed with excitation/emission at 485/525 nm. […] Total protein concentration in the supernatants (total lysate) was determined by Bradford method. […] 50 μg of the lysate was used to measure NADPH levels using a NADPH quantification kit (Biovision), according to the manufacturer's instructions.

zebrafish embryos = assay: NADPH levels in lysates of pooled zebrafish embryos; format: in vivo; conditions: lysates of pooled AG1-treated embryos
Description: Embryos were dechorinated with pronase at 24 hours post fertilization (hpf) and treated with 50 μg/ml of chloroquine and/or AG1 by directly adding the compounds to the well. For ROS measurements, embryos were incubated with compounds for 2 hours, and then the ROS detecting reagent (CM-H2DCFDA) was added at a final concentration of 500 ng/ml to the well for a total treatment time of 5 hours. One embryo was placed to each well of a black, opaque 96-well plate. The florescence was analyzed with excitation/emission at 485/525 nm. After ROS assays, embryos at about 32 hpf were pooled and lysed in buffer containing 50 mM Tris (pH 7.4), 150 mM NaCl, 1 mM EDTA, 0.1% NP-40, and protease inhibitor cocktail, which was followed by three cycles of freeze and thawing in liquid nitrogen. The lysate was centrifuged at 14,000 rpm at 4° C. for 15 minutes. Total protein concentration in the supernatants (total lysate) was determined by Bradford method. 50 μg of total lysate was loaded onto 10% SDS-PAGE gels and the protein level was examined by Western blot using anti-G6PD antibody (Abcam (G6PD: AB87230)). 10 μg of total lysate was used for enzymatic assay. 50 μg of the lysate was used to measure NADPH levels using a NADPH quantification kit (Biovision), according to the manufacturer's instructions.

SCCNCCc1c[nH]c2ccccc12 [AG1, 2-[2-(1H-indol-3-yl)ethylamino]ethanethiol]
ROS, G6PD activity, NADPH level, pericardial edema (g6pd crispant embryos): did not significantly affect | NADPH levels (zebrafish embryos): significant increase
